Data published in patent US9114120B2, “Therapeutical method for the treatment of the Leber optic neuropathy” (SIGMA-TAU INDUSTRIE FARMACEUTICHE RIUNITE, S.P.A., priority 2010, dated 2015).

System: Patients with LHON
Assay: Example 2: 12-month double blind, placebo controlled study of acetyl L-carnitine, visual acuity
Type: in vivo, human
Conditions: for Visual Acuity Change, Diff / Visual Acuity Recovery, Diff: ALC 2 g/day orally vs placebo
Source text: 30 Patients with LHON were enrolled. To be eligible, participants were required to meet the following inclusion criteria: both sexes, age ≧20 years and ≦60 years, diagnosis of Leber's optic neuropathy assessed by the presence of at least one of the three most common LHON pathogenic mutations (11778/ND4, 3460/ND1, 14484/ND6), and duration of disease greater than 2 years.
The study treatment trial was 12-month, double blind, placebo controlled with participants randomized to receive acetyl L-carnitine (2 g/day orally) or placebo.
The primary efficacy end point for the study was the best recovery in visual acuity in either eye measured by change in logMAR (logarithm of Minimal Angle of Resolution) in study eyes comparing the acetyl-L-carnitine treatment group with the placebo treatment control group 6 and 12 months after enrolment. Secondary efficacy outcome was the patients' best visual acuity at 6 and 12 months compared to best visual acuity at baseline.

With CC(=O)O[C@H](CC(=O)[O-])C[N+](C)(C)C [ALC, acetyl-L-carnitine] the “Visual Acuity Change, Diff” value (T6 (6 months), p < 0.05) was “Diff = 14 letters”, the “Visual Acuity Recovery, Diff” value (T6 (6 months), p < 0.05) was “Diff = 10 letters” and the “Visual Acuity Change, Diff” value (T12 (12 months), p < 0.01) was “Diff = 18 letters”. The “Visual Acuity Recovery, Diff” value (T12 (12 months), p < 0.01) was “Diff = 12 letters”, the “improvement of visual acuity recovery (in words)” value (vs placebo, after 6 months (T6) and 12 months (T12)) was “significant difference in improvement” and the “visual acuity of eyes (in words)” value (vs placebo, both time points T6 and T12) was “significantly improved”.
